Here are results for five compounds from US4698340A, “Pyrimidine derivatives, processes for preparation thereof and composition containing the same” (Fujisawa Pharmaceutical Co., Ltd., priority 1984, dated 1987).

Molecules are shown by their SMILES.

The subject of assay [1] is Arachidonic Acid-Induced Cerebral Edema in Rat. As to the kind of experiment: Effect on Arachidonic Acid-Induced Cerebral Edema in Rat. In kind it is in vivo, rat (male Wistar). As to conditions: for Water content, Contralatelal hemisphere / Water content, Infarcted hemisphere: N = 6; for Water content, Infarcted hemisphere: **P < 0.01. How it is done:
Effect on Arachidonic Acid-Induced Cerebral Edema in Rat
Male wistar rats were anesthetized with ethyl ether. The right lingual and occipital arteries were ligated. Retrograde cannulation was performed at the bifurcation of the external and internal carotid arteries via the upper part of the right external artery. Arachidonic acid dissolved in 10% ethyl alcohol and 0.4% Na2 CO3 was injected into the internal carotid artery in a dose of 2 mg/0.2 ml/kg at a speed of 0.08 ml/min. Two hours after the injection of arachidonic acid, the animals were decapitated and water content in the infarcted and contralatelal hemisphere was measured. The test drug was administered intraperitoneally 30 min before the injection of arachidonic acid.
(§1) Test compounds were dissolved in saline.

The next assay relates to Rat Brain Mitochondria. As to the kind of experiment: Effect on Lipid Peroxide Production in Rat Brain Mitochondria (malondialdehyde, thiobarbituric acid method). In kind it is biochemical, rat (male Wistar). The settings on record: 1 hr at 37° C., 100 μM ascorbic acid, 20 μM FeSO4. How it is done: Effect on Lipid Peroxide Production in Rat Brain Mitochondria
Brain mitochondria from male Wistar rat was incubated with 100 μM ascorbic acid, 20 μM FeSO4 and test drug for 1 hr at 37° C. Malondialdehyde formed in the incubation mixture was measured by the thiobarbituric acid method according to Shimada et al (Biochem. Biophys. Acta, 489; 163-172. 1977)
Test compounds were dissolved in water

The test system of another assay is Mice Subjected to Anoxia. As to the kind of experiment: Effect on Survival Time of Mice Subjected to Anoxia (100% N2). In kind it is in vivo, mouse (male ICR). As to conditions: 30 min before anoxia, n = 10, **P < 0.01 vs control. How it is done:
Effect on Survival Time of Mice Subjected to Anoxia (100% N2)
A pair of male ICR mice with the same age was maintained in a close glass chamber in which circulated a current of nitrogen gas, and measured survival time. One mouse was pretreated intraperitoneally with the test compound, and another with the vehicle 30 min before the experiment.
as §1

The mark [2] stands for this setting: 32 mg/kg i.p. 30 min before arachidonic acid, vehicle (1) 78.7 ± 0.4, (2), (3) 79.4 ± 0.2.
The mark [3] stands for this setting: 32 mg/kg i.p. 30 min before arachidonic acid, vehicle (1) 81.9 ± 0.4, (2), (3) 81.5 ± 0.4.

Turning to `CCCCC/C=C\C/C=C\C/C=C\C/C=C\CCCC(=O)O` [Arachidonic acid, reference compound], the “water content of the ipsilatelal hemisphere after injection into internal carotid artery (in words)” value in assay [1] (2 mg/0.2 ml/kg, two hours after the injection) is recorded as “caused increase of water content”.
For the compound `Cc1nc(-c2ccccc2)nc(-c2cccc([N+](=O)[O-])c2)c1C(=O)N1CCN(C)CC1` [Example 21, 6-methyl-5-(4-methylpiperazin-1-ylcarbonyl)-4-(3-nitrophenyl)-2-phenyl-pyrimidine], the “Inhibition % (malondialdehyde formation)” value in the assay on Rat Brain Mitochondria (at 10^-5 g/ml) came to 72.8%. In assay [1] (setting [2]), the “Water content, Contralatelal hemisphere” value worked out at 78.6 ± 0.1%. The “Water content, Infarcted hemisphere” value in assay [1] (setting [3]) is recorded as 79.7 ± 0.3%.
On to `COC(=O)c1c(C)nc(-c2ccccc2)nc1-c1cc([N+](=O)[O-])ccc1SC` [Example 26, methyl 6-methyl-4-(2-methylthio-5-nitrophenyl)-2-phenyl-5-pyrimidinecarboxylate], for which, in the assay with Rat Brain Mitochondria (at 10^-4 g/ml), the “Inhibition % (malondialdehyde formation)” value was found to be 90.9%.
For `Cc1nc(-c2ccccc2)nc(-c2cccc([N+](=O)[O-])c2)c1C(=O)NCCN(C)C.O=C(O)/C=C/C(=O)O` [Example 32, N-(2-dimethylaminoethyl)-6-methyl-4-(3-nitrophenyl)-2-phenyl-5-pyrimidinecarboxamide fumarate], the Survival time was determined as 37.0 ± 1.5 s with Mice Subjected to Anoxia (10 mg/kg intraperitoneally, control 30.5 ± 0.5) and 50.0 s in the assay with Mice Subjected to Anoxia (100 mg/kg intraperitoneally, control 39.0 ± 1.2). The “Water content, Contralatelal hemisphere” value worked out at 79.0 ± 0.3% in assay [1] (10 mg/kg i.p. 30 min before arachidonic acid, vehicle 78.7 ± 0.4) and 79.3 ± 0.2% in assay [1] (setting [2]). For the same compound, the “Water content, Infarcted hemisphere” value in assay [1] (10 mg/kg i.p. 30 min before arachidonic acid, vehicle 81.9 ± 0.4) worked out at 80.2 ± 0.1%; in assay [1] (setting [3]), 79.9 ± 0.1%.
`Cc1nc(-c2ccccc2)nc(-c2cccc([N+](=O)[O-])c2)c1C(=O)NCCN1CCSCC1` [Example 36, 6-methyl-4-(3-nitrophenyl)-2-phenyl-N-[2-(4-thiomorpholino)ethyl]-5-pyrimidinecarboxamide]: the “Inhibition % (malondialdehyde formation)” value with Rat Brain Mitochondria (at 10^-5 g/ml) amounted to 70.2%. In addition, in assay [1] (setting [2]), the “Water content, Contralatelal hemisphere” value is given as 78.9 ± 0.1%. In addition, in assay [1] (setting [3]), the “Water content, Infarcted hemisphere” value is 79.5 ± 0.2%.
